From patent US9163015B2, “Pyrazolopyridine, pyrarolopyrazine, pyrazolopyrimidine, pyrazolothiophene and pyrazolothiazole compounds as MGLUR4 allosteric potentiators, compositions, and methods of treating neurological dysfunction” (Vanderbilt University, priority 2010, dated 2015)

target: human mGluR4 (Homo sapiens (Human), UniProt Q14833); test: mGluR4 potentiation assay, CHO cells transfected with human mGluR4, Ca2+-sensitive fluorescent dye, EC20 agonist; assay type: cell-based; conditions: potentiation of mGluR4; table does not state human or rat receptor
Procedure: The disclosed compounds and compositions can be evaluated for their ability to act as a potentiator of metabotropic glutamate receptor activity, in particular mGluR4 activity, by any suitable known methodology known in the art. For example, Chinese Hamster Ovary (CHO) cells transfected with human mGluR4 or HEK cells co-transfected with rat mGluR4 and the G-protein regulated Inwardly Rectifying Potassium channel (GIRK) were plated in clear bottom assay plates for assay in a Hamamatsu FDSS Fluorometric Plate Reader. The cells were loaded with either a Ca2+-sensitive fluorescent dye or the thallium responsive dye and the plates were washed and placed into a suitable kinetic plate reader. For human mGluR4 assays, a fluorescence baseline was established for 3-5 seconds, the disclosed compounds were then added to the cells, and the response in cells was measured. Approximately two and a half minutes later, a concentration of mGluR4 orthosteric agonist (e.g. glutamate or L-AP4) eliciting approximately 20% (EC20) of the maximal agonist response was added to the cells, and the response was measured. Two minutes later, a concentration of mGluR4 agonist (e.g. glutamate or L-AP4) eliciting 80% (EC80) of the maximal agonist response was added to the cells, and the response was measured. For rat mGluR4/GIRK experiments, a baseline was established for approximately five seconds, disclosed compounds were added, and either an EC20 or EC80 concentration of agonist was added approximately two and one half minutes later.
The above described assay operated in two modes. In the first mode, a range of concentrations of the disclosed compounds are added to cells, followed by a single fixed concentration of agonist. If the compound acts as a potentiatior, an EC50 value for potentiation and a maximum extent of potentiation by the compound at this concentration of agonist is determined by non-linear curve fitting. If the compound acts as a noncompetitive antagonist, an IC50 value is determined by non-linear curve fitting. In the second mode, several fixed concentrations of the disclosed compounds are added to various wells on a plate, followed by a range in concentrations of agonist for each concentration of disclosed compound. The EC50 values for the agonist at each concentration of compound are determined by non-linear curve fitting. A decrease in the EC50 value of the agonist with increasing concentrations of the sample compound (a leftward shift of the agonist concentration-response curve) is an indication of the degree of mGluR4 potentiation at a given concentration of the sample compound. A decrease in the maximal response of the agonist with increasing concentrations of the sample compounds, with or without a rightward shift in agonist potency, is an indication of the degree of noncompetitive antagonism at mGluR4. The second mode also indicates whether the sample compounds also affect the maximum response to mGluR4 to agonists.

Chain of human mGluR4 (Q14833 33-912): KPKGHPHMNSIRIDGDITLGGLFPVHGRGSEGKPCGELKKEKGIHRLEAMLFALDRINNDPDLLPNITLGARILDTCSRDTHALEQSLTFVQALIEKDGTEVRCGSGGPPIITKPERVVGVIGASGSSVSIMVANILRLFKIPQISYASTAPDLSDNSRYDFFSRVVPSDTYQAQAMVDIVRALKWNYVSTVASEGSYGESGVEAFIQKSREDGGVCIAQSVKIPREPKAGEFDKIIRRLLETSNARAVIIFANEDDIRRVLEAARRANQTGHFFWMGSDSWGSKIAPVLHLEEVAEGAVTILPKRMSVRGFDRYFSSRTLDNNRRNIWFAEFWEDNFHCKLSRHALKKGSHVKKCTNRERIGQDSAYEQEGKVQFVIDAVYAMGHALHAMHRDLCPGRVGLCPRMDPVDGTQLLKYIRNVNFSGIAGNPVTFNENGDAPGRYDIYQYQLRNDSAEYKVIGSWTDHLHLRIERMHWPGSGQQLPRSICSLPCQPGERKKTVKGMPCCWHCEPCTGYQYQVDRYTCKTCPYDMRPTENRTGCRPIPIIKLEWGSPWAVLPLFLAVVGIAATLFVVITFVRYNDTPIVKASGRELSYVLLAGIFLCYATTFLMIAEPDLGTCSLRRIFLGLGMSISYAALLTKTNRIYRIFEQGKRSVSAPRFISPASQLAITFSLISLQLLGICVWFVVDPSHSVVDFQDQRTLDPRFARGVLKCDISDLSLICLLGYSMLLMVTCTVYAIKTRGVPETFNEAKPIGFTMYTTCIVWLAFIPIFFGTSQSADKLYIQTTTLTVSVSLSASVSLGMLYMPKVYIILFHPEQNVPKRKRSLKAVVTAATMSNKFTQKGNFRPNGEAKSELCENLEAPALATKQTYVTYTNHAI

Row | EC50 [nM] | SMILES
1 | 584 | Fc1cccc(Nc2n[nH]c3cccnc23)c1 [Example 12, N-(3-fluorophenyl)-1H-pyrazolo[4,3-b]pyridin-3-amine]
2 | 9070 | Clc1cc(N(c2ncccn2)c2n[nH]c3cccnc23)ccc1Oc1ncccn1 [Example 27, N-(3-chloro-4-(pyrimidin-2-yloxy)phenyl)-N-(pyrimidin-2-yl)-1H-pyrazolo[4,3-b]pyridin-3-amine]
3 | 721 | Clc1cc(Nc2n[nH]c3cccnc23)cc(Cl)c1Cl [Example 42, N-(3,4,5-trichlorophenyl)-1H-pyrazolo[4,3-b]pyridin-3-amine]
4 | 1420 | Fc1ccc(Nc2n[nH]c3cccnc23)cc1 [Example 65, N-(4-fluorophenyl)-1H-pyrazolo[4,3-b]pyridin-3-amine]
5 | 68 | Cc1cc(Nc2n[nH]c3cccnc23)ccc1F [Example 82, N-(4-fluoro-3-methylphenyl)-1H-pyrazolo[4,3-b]pyridin-3-amine]
6 | 88 | Clc1cccc(Oc2ccc(Nc3n[nH]c4cccnc34)cc2Cl)n1 [Example 77, N-(3-chloro-4-((6-chloropyridin-2-yl)oxy)phenyl)-1H-pyrazolo[4,3-b]pyridin-3-amine]
7 | 426 | Clc1cc(Nc2n[nH]c3cccnc23)ccc1OCc1ccccc1 [Example 87, N-(4-(benzyloxy)-3-chlorophenyl)-1H-pyrazolo[4,3-b]pyridin-3-amine]
8 | 623 | Fc1c(Cl)cccc1Nc1n[nH]c2cccnc12 [Example 17, N-(3-chloro-2-fluorophenyl)-1H-pyrazolo[4,3-b]pyridin-3-amine]
9 | 497 | Fc1cc(Nc2n[nH]c3cccnc23)ccc1Oc1cc(C(F)(F)F)ccn1 [Example 75, N-(3-fluoro-4-((4-(trifluoromethyl)pyridin-2-yl)oxy)phenyl)-1H-pyrazolo[4,3-b]pyridin-3-amine]
10 | 3070 | Fc1ccc(Nc2n[nH]c3cncnc23)cc1Cl [Example 26, N-(3-chloro-4-fluorophenyl)-1H-pyrazolo[4,3-d]pyrimidin-3-amine]
11 | 1180 | Fc1ccc(Nc2n[nH]c3scnc23)cc1Cl [Example 41, N-(3-chloro-4-fluorophenyl)-1H-pyrazolo[4,3-d]thiazol-3-amine]
12 | 217 | Oc1ccc(Nc2n[nH]c3cccnc23)cc1Cl [Example 36, 4-((1H-pyrazolo[4,3-b]pyridin-3-yl)amino)-2-chlorophenol]
13 | 8340 | CC1Oc2ccc(Nc3n[nH]c4cccnc34)cc2N(C)C1=O (stereo not shown) [Example 63, 6-((1H-pyrazolo[4,3-b]pyridin-3-yl)amino)-2,4-dimethyl-2H-benzo[b][1,4]oxazin-3(4H)-one]
14 | > 10000 | CN1C(=O)COc2cc(Nc3n[nH]c4cccnc34)ccc21 [Example 54, 7-((1H-pyrazolo[4,3-b]pyridin-3-yl)amino)-4-methyl-2H-benzo[b][1,4]oxazin-3(4H)-one]
15 | 597 | Fc1ncc(Cl)cc1Nc1n[nH]c2cccnc12 [Example 34, N-(5-chloro-2-fluoropyridin-3-yl)-1H-pyrazolo[4,3-b]pyridin-3-amine]
16 | 3360 | Clc1cc(Nc2n[nH]c3cccnc23)cnc1Oc1ccccn1 [Example 96, N-(5-chloro-6-(pyridin-2-yloxy)pyridin-3-yl)-1H-pyrazolo[4,3-b]pyridin-3-amine]
17 | 51.4 | Cc1cccc(Nc2n[nH]c3cccnc23)c1 [Example 18, N-(m-tolyl)-1H-pyrazolo[4,3-b]pyridin-3-amine]
18 | 165 | Cc1ccc(Nc2n[nH]c3cccnc23)cc1Cl [Example 83, N-(3-chloro-4-methylphenyl)-1H-pyrazolo[4,3-b]pyridin-3-amine]

Row | EC50 [nM] | SMILES
19 | 10000 | c1cnc2c(Nc3nccs3)n[nH]c2c1 [Example 45, N-(1H-pyrazolo[4,3-b]pyridin-3-yl)thiazol-2-amine]
20 | 1540 | Clc1ccc(Oc2ccc(Nc3n[nH]c4cccnc34)cc2Cl)cc1 [Example 81, N-(3-chloro-4-(4-chlorophenoxy)phenyl)-1H-pyrazolo[4,3-b]pyridin-3-amine]
21 | 254 | FC(F)Oc1cccc(Nc2n[nH]c3cccnc23)c1 [Example 9, N-(3-(difluoromethoxy)phenyl)-1H-pyrazolo[4,3-b]pyridin-3-amine]
22 | 753 | CN1C(=O)N(c2ccc(Nc3n[nH]c4cccnc34)cc2Cl)C(=O)C1C(C)(C)C (stereo not shown) [Example 35, 3-(4-((1H-pyrazolo[4,3-b]pyridin-3-yl)amino)-2-chlorophenyl)-5-(tert-butyl)-1-methylimidazolidine-2,4-dione]
23 | 145 | FC(F)(F)c1cccc(Nc2n[nH]c3cccnc23)c1 [Example 3, N-(3-(trifluoromethyl)phenyl)-1H-pyrazolo[4,3-b]pyridin-3-amine]
24 | 351 | O=C(c1ccccc1)c1ccc(Nc2n[nH]c3cccnc23)cc1Cl [Example 64, (4-((1H-pyrazolo[4,3-b]pyridin-3-yl)amino)-2-chlorophenyl)(phenyl)methanone]
25 | 164 | Cc1cc(Nc2n[nH]c3cccnc23)ccc1Cl [Example 7, N-(4-chloro-3-methylphenyl)-1H-pyrazolo[4,3-b]pyridin-3-amine]
26 | 3050 | FC(F)(F)c1cc(Nc2n[nH]c3cccnc23)cc(C(F)(F)F)c1 [Example 67, N-(3,5-bis(trifluoromethyl)phenyl)-1H-pyrazolo[4,3-b]pyridin-3-amine]
27 | 5300 | c1cnc2c(NCC3CCCCC3)n[nH]c2c1 [Example 49, N-(cyclohexylmethyl)-1H-pyrazolo[4,3-b]pyridin-3-amine]
28 | 8010 | CN(c1cccc(Cl)c1)c1n[nH]c2cccnc12 [Example 86, N-(3-chlorophenyl)-N-methyl-1H-pyrazolo[4,3-b]pyridin-3-amine]
29 | 112 | Clc1cc(Nc2n[nH]c3cccnc23)ccc1Oc1ccccn1 [Example 52, N-(3-chloro-4-(pyridin-2-yloxy)phenyl)-1H-pyrazolo[4,3-b]pyridin-3-amine]
30 | 113 | Clc1ccc(Nc2n[nH]c3cccnc23)cc1Cl [Example 68, N-(3,4-dichlorophenyl)-1H-pyrazolo[4,3-b]pyridin-3-amine]
31 | 116 | Clc1cc(Nc2n[nH]c3cccnc23)ccc1Oc1ncccn1 [Example 24, N-(3-chloro-4-(pyrimidin-2-yloxy)phenyl)-1H-pyrazolo[4,3-b]pyridin-3-amine]
32 | 284 | Clc1ccnc(Nc2n[nH]c3cccnc23)c1 [Example 13, N-(4-chloropyridin-2-yl)-1H-pyrazolo[4,3-b]pyridin-3-amine]
33 | 101 | Fc1cc(F)cc(Nc2n[nH]c3cccnc23)c1 [Example 85, N-(3,5-difluorophenyl)-1H-pyrazolo[4,3-b]pyridin-3-amine]
34 | 169 | COc1cccc(Nc2n[nH]c3cccnc23)c1 [Example 19, N-(3-methoxyphenyl)-1H-pyrazolo[4,3-b]pyridin-3-amine]
35 | 8140 | CN1C(=O)COc2ccc(Nc3n[nH]c4cccnc34)cc21 [Example 55, 6-((1H-pyrazolo[4,3-b]pyridin-3-yl)amino)-4-methyl-2H-benzo[b][1,4]oxazin-3(4H)-one]
36 | 8990 | c1cnc2c(Nc3cncnc3)n[nH]c2c1 [Example 39, N-(pyrimidin-5-yl)-1H-pyrazolo[4,3-b]pyridin-3-amine]

Row | SMILES | EC50 [nM]
37 | N#Cc1ccc(Nc2n[nH]c3cccnc23)cc1Cl [Example 21, 4-((1H-pyrazolo[4,3-b]pyridin-3-yl)amino)-2-chlorobenzonitrile] | 93
